This is an account of results in patent US20250208133A1, “SENESCENT CELL SURFACE MARKERS” (SENS RESEARCH FOUNDATION, priority 2022, published 2025).

What all share (format): cell-based, human
For series [1], the system named is senescent IMR-90 fibroblasts. Briefly: Crystal violet staining cell viability, senescent cells. The note with it: 48 hours. Here is the method:
(§1) Human IMR-90 fibroblasts (ATCC, USA) were treated with 300 nM of doxorubicin hydrochloride (Millipore Sigma, USA; Cat #504042) in DMEM complete media for 24 hours or ionizing radiation (10 Gy X-ray) and maintained in culture. Primary human endothelial cells were treated with 250 nM of doxorubicin in promo cell basal medium supplemented with Growth Medium MV 2 Supplement Pack for 24 hours and maintained in culture. Senescent cells were used 7-13 days following treatment.
(§2) Cell viability after 48 h of apilimod (1 μM) or vacuolin-1 (1 μM) treatment was estimated by crystal violet. Cells in 6-well cell culture plates (Greiner Bio-One; Cat #657160) were washed twice with PBS, incubated with 4% paraformaldehyde for 15 minutes at room temperature, then stained with 0.25% crystal violet for 10 minutes. Cells were washed with deionized water and imaged, 3 images per well.
(§3) Apilimod is a clinical PIKfyve inhibitor. Apilimod was used to further validate the senolytic effects of PIKfyve inhibitors. […] To further characterize the potent cytotoxic effect of apilimod on non-senescent versus senescent cells, IMR-90 fibroblasts were treated with 1 μM of apilimod. […] Of note, the decrease in viable apilimod-treated non-senescent cells after 48 hours of treatment is likely in part due to a decrease in proliferation rather than viability of apilimod-treated cells.

In series [2] the test system is non-senescent IMR-90 fibroblasts. Put plainly: Crystal violet staining cell viability, non-senescent cells. The note with it: 1 μM, 48 hours. The protocol:
as §2, §3

Test in series [3]: as above
The note with it: human, non-senescent IMR-90 fibroblasts, non-senescent cells, read-out: cell viability, quantification of adherent cells. Here is the method: as §2, §3

In another series the test system is senescent IMR-90 cells. Briefly: xCELLigence RTCA impedance viability assay, senescent cells. Here is the method:
as §1
For measurement of background values, 50 μl of complete medium was added to E-Plates 96 (Agilent). Cells were seeded in a total of 200 μl of medium per well at a density of 10,000 cells per well. Cell attachment was monitored using the RTCA MP (Agilent) instrument and the RTCA software (Agilent). Media was replaced with media containing either DMSO, vacuolin-1 or apilimod. Cells treated with 0.2% Triton X-100 was used as a 100% dead cell positive control for cytotoxicity assays. After drug addition, impedance measurements were recorded every 15 minutes. All experiments were performed in at least 5 replicates for each dose. Changes in impedance were expressed as a cell index (CI) value, which derives from relative impedance changes corresponding to cellular coverage of the electrode sensors, normalized to baseline impedance values with medium only. To analyze the acquired data, CI values were exported, and percentage of attached cell surface was calculated in relation to positive controls and DMSO-treated cells.
Senescent cells are known to employ several mechanisms to increase their survival. For example, increased expression of the pro-survival BCL-family proteins has been widely studied. In fact, BCL antagonism has been the basis of many senolytic drugs (see, e.g., Zhu, et al., Aging Cell. 2016 June; 15(3):428-35). Vacuolin-1 was used to determine if lysosomal exocytosis is a mechanism for senescent cell survival. Vacuolin-1 is a potent inhibitor of Phosphatidylinositol-3-phosphate 5-kinase type III (PIKfyve), which is a key player in lysosomal exocytosis allowing lysosomes to fuse with the plasma membrane. The viability assay was performed in senescent IMR-90 cells using xCELLigence Real-Time Cell Analysis (RTCA) system that uses label-free cellular impedance to monitor cell health and viability over time.

Series [4] has as its system non-senescent (NS) IMR-90 cells. Put plainly: xCELLigence RTCA impedance viability assay, non-senescent cells. The settings on record: 48 hours of treatment with 1 μM.

For the compound `Cc1cccc(/C=N/Nc2cc(N3CCOCC3)nc(OCCc3ccccn3)n2)c1` [apilimod], in series [1] (1 μM), the “viability of senescent cells, light microscopy of crystal violet-stained cells” value is reported as “significant decrease”. Also, the viability at 1 µM in series [1] (Homo sapiens, IMR-90, senescent condition, read-out: viable cells, quantification of adherent cells) came to 17%. Also, in series [2], the “non-senescent cell viability, light microscopy of crystal violet-stained cells” value is reported as “no effect”. Further, in series [3], the viability at 48 h, 1 µM is 92%. Moreover, the senescent cell survival entry in the series with senescent IMR-90 cells (48 hours of treatment with 1 μM) and in the series on senescent IMR-90 cells (48 hours of treatment with 5 μM) was “No senescent cells survived” in each case. Further, in the series with senescent IMR-90 cells (dose response), the senescent cell viability result is listed as “dose-dependent declines in senescent cell viability”.
Take `Ic1cccc(/C=N/Nc2nc(N3CCOCC3)nc(N(c3ccccc3)c3ccccc3)n2)c1` [vacuolin-1]: the “mean normalized cell index” value in series [4] worked out at 1.2; in the series on senescent IMR-90 cells (senescent cells, 48 hours of treatment with 1 μM) it was 0.4. The “selective killing of senescent cells by blocking lysosomal exocytosis” value in the series with senescent IMR-90 cells (senescent vs NS IMR-90 cells, dose response) is listed as “selectively killed senescent IMR-90 cells in a dose-dependent manner”.
